In assay [1] the test system is 3D skin organoid prepared using iPSC-derived fibroblasts from patients with systemic dermatosis. The assay can be described thus: Skin hardening alleviation in 3D skin organoid model (thickness by H&E staining). In kind it is cell-based. The settings on record: 1 μM in DMSO solution, control DMSO only (FIG. 1). As for the experimental part: A 3D skin organoid was prepared using iPSC-derived fibroblasts from patients with systemic dermatosis according to the method described in the literature (Lancet. 2009 Nov. 21;374(9703):1745-53). When 1 μM of active ingredient was treated with DMSO solution, it was confirmed through H&E immunochemical staining that the thickness of the 3D skin organoid was reduced (FIG. 1). The control group was treated with only DMSO.

The subject of assay [2] is mouse model of systemic scleroderma skin organoid transplantation. The assay can be described thus: Skin hardening alleviation in 3D skin organoid transplantation mouse model (skin thickness, fibrosis factors by immunochemical staining). In kind it is in vivo, SCID mice. The following applies: daily for 2 weeks. From the text:
The previously constructed 3D skin organoid derived from the systemic scleroderma patient iPSC was transplanted into SCID mice to construct a mouse model of systemic scleroderma. The mouse skin tissue was cut into 1×2 cm, and then 3D skin organoid skin tissue was sutured to the mouse skin. For a skin transplantation method, it was transplanted to mice or the like using a tie-over dressing method used clinically. After placing a gauze on the suture site, it was tied with a suture and dressed with a band.
The active ingredient was subcutaneously administered at a dose of 3 mg/kg and 10 mg/kg daily for 2 weeks to a mouse model of systemic scleroderma skin organoid transplantation. For the negative control group (NC), a physiological saline was administered to a normal skin tissue, and for the positive control group (SSc), a physiological saline was administered to a systemic scleroderma skin organoid transplanted skin tissue. The skin thickness, which is the primary evaluation index of systemic scleroderma, was measured through immunochemical staining, and the results are shown in FIG. 2.
To confirm whether the fibrosis factor is reduced in systemic scleroderma skin tissue by the active ingredient, immunochemical staining was performed and the results are shown in FIG. 3.

The test system of assay [3] is systemic sclerosis-associated interstitial lung disease (SSc-ILD) mouse model administered with BLM. The assay can be described thus: SSc-ILD bleomycin osmotic pump mouse model: body weight (%). In kind it is in vivo, C57BL/6 mice. The settings on record: for Body weight (%) change: individual animals 1-9. From the text: (§1) Seven-week-old C57BL/6 mice were obtained and acclimatized indoors for 5 days or more. For the systemic sclerosis-related interstitial lung disease model, an osmotic pump injection model was designed. For that reason, if it is not modeling using an osmotic pump, it is a model in which BLM should be injected subcutaneously into the back of the test animal every day for 4 weeks, and this is because these tests can cause very extreme pain at the site of administration.
(§2) The incision site was sutured, an osmotic pump was inserted, bleomycin was administered for 1 week, and then the osmotic pump was removed on the 10th day. It was confirmed that systemic sclerosis-associated interstitial lung disease was induced in a mouse model administered with BLM for 1 week, and specific experimental groups are shown in Table 1 below.

Assay [4] has the same test system. The assay can be described thus: SSc-ILD bleomycin osmotic pump mouse model: lung weight. The settings on record: for Lung weight: individual animals 1-9, unit not given. It counts as in vivo, C57BL/6 mice. The arrangement: Lung weight: unit not given here.
Text: as §1, §2

Assay [5] shares this test system. The assay can be described thus: SSc-ILD bleomycin osmotic pump mouse model: lung function evaluation (SpO2). It counts as in vivo, C57BL/6 mice.
Text: as §1, §2
This lung function evaluation is an experiment to show the therapeutic effect of this active substance in patients with systemic sclerosis-associated interstitial lung diseases, and is the most direct and important evaluation index that has the greatest influence on the symptoms and quality of life of patients with systemic sclerosis-associated interstitial lung diseases, unlike the general pulmonary fibrosis ameliorating effect. This is an experiment that can most directly show the effect of improving lung function in an animal model of systemic sclerosis-associated interstitial lung disease by measuring the oxygen concentration in the body.
On the 21st day, it was measured with a SpO2 measuring device (Berry, Veterinary Pulse Oximeter) via the abdominal side of the mouse, and the results are shown in Table 5 and FIG. 3.

For assay [6] the test system is unchanged. The assay can be described thus: SSc-ILD bleomycin osmotic pump mouse model: skin thickness (H&E, MT stain). It counts as in vivo, C57BL/6 mice. The settings on record: day 28; for Skin thickness: individual animals 1-9.
Text: as §1, §2
On the day 28, skin tissues were extracted from mice and subjected to H&E and Mansson's Trichrome (MT stain). The skin thickness of 10 sites was measured randomly through the image of the photograph in which stain progressed (progressed at a minimum interval of 200˜300 um). The entire area of the photograph was measured as evenly as possible, and the areas where the stain tissue was damaged were excluded from the measurement.

Assay [7] shares this test system. The assay can be described thus: SSc-ILD bleomycin osmotic pump mouse model: collagen content (hydroxyproline) in skin tissue. It counts as in vivo, C57BL/6 mice. The settings on record: for hydroxyproline value, ratio compared to a normal group: skin tissue, individual animals 1-9.
Text: as §1, §2
An attempt was made to measuring the amount of hydroxyproline in the mouse and thus indirectly measure the collagen content. Analysis was performed using INSOLUBLE Collagen Assay (Biocolor, S2000), and the details are as follows.
First, 10 mg of frozen skin tissue was pulverized with 100 ul of fragmentation reagent. 100 ul of 37% HCl was added and incubated at 65° C. for 3 hours. The contents of the tube were shaken at 30 minute intervals to aid tissue disintegration. Centrifugation was performed at 12,000 rpm for 10 minutes. After centrifugation, it was transferred to a 1.5 ml tube. 50 ul was taken from a sample between 10 and 100 ul, distilled water was added, and the sample was prepared so as to match with 100 ul.
1 ml of dye was added to 100 ul of the prepared sample, and mixed for 30 minutes. The mixture was centrifuged at 12,000 rpm for 10 minutes, and then transferred to a new tube. The dye was removed with 750 ul of ice-cold acid-salt wash reagent. After centrifugation at 12,000 rpm for 10 minutes, it was transferred to a new tube. The tube was mixed with the collagen-binding dye using a vortex mixer, and gollagen binding dye was dissolved within 10 minutes to complete the measurement preparation (measurement should be completed within 2˜3 hours). The tube cap was closed until it was ready to measure absorbance.
200 ul of each sample was transferred to an individual well of a 96 micro-well plate, and the absorbance was measured at 560 nm.

The mark [8] stands for this setting: 3 and 10 mg/kg subcutaneous, immunochemical staining, *p<0.05, ***p<0.001 (FIG. 3).

“And” between values parts separate entries of the source, which are not always exact repeats. Identical values can stand only once.

From patent US20240307365A1, “Pharmaceutical Composition for Preventing or Treating Systemic Sclerosis” (Daewoong Pharmaceutical Co., Ltd., priority 2021, published 2024) come the findings set out here.

Take `O[C@H]1CCCN[C@@H]1CCCn1cnc2c(Cl)c(Cl)ccc21` [Active ingredient]: in assay [1], the “thickness of the 3D skin organoid” value was “reduced”. Also, the “thickness of the skin tissue” value in assay [2] (3 mg/kg and 10 mg/kg subcutaneous, ***p<0.001 (FIG. 2)) is given as “significantly reduced”. Moreover, in assay [2] (setting [8]), the “fibrotic factor Collagen I in skin tissue” value is “significantly reduced”. Further, the “fibrotic factor Collagen III in skin tissue” value in assay [2] (setting [8]) was “significantly reduced”. Besides, in assay [2] (setting [8]), the “fibrotic factor aSMA in skin tissue” value was “significantly reduced”. For the same compound, the “Body weight (%) change” value in assay [3] (3 mg/kg oral, 28 days) was −2.45% and −2.14% and 1.34% and −0.33% and −1.93% and 8.65% and 3.02% and −0.36% and 1.07%; in assay [3] (10 mg/kg oral, 28 days), 4.62% and 2.54% and 1.96% and −4.1% and −2.48% and 0.48% and 0.14% and 4.88% and 4.78%; in assay [3] (30 mg/kg oral, 28 days) it was 12.09% and 7.78% and 2.13% and 2.34% and 1.45% and 9.52% and 5.35% and −2.86% and 7.57%. For the same compound, in assay [3] (30 mg/kg oral, 28 days, p<0.01), the “body weight compared to the vehicle” value is listed as “significantly increased”. Also, in assay [3] (from 3 mg/kg oral, 28 days), the “changes in body weight, significance” value is reported as “significant results”. Moreover, the Lung weight in assay [4] (3 mg/kg oral) is 1.01 and 1.14 (2×) and 1.08 (2×) and 0.98 (2×) and 1.15 and 0.92; in assay [4] (10 mg/kg oral), 0.98 and 1.22 and 1.14 and 1.12 and 0.95 and 1.16 and 0.99 and 0.93 and 1.08; in assay [4] (30 mg/kg oral), 1.10 and 0.99 and 0.90 and 0.98 (2×) and 1.03 and 0.94 and 1.09 and 0.97. Besides, the results for the “change in lung weight corrected by body weight, significance” value in assay [4] (30 mg/kg oral) and in assay [4] (from 10 mg/kg oral) were “significance increased to p<0.01” and “showed a significance”, respectively. For the same compound, in assay [4] (only at 30 mg/kg oral), the “change in lung weight, significance” value is given as “significant tendency”. Further, in assay [5] (30 mg/kg oral, day 21), the “oxygen saturation recovery rate versus nintedanib (60 mg/kg) group” value is listed as “comparable to that of nintedanib”. Besides, the “SpO2 (oxygen saturation) compared with the vehicle” value in assay [5] (30 mg/kg oral, day 21, p<0.001) is reported as “higher oxygen saturation”. Besides, the “SpO2 (oxygen saturation), significance” value in assay [5] (from 10 mg/kg oral, day 21 (FIG. 7)) is on record as “significant results”. Moreover, the “density of collagen in the skin (MT stain)” value in assay [6] (3 mg/kg oral) is “tendency to decrease”. In addition, the “skin thickness, significance” value in assay [6] (3 mg/kg oral) is given as “did not significantly decrease”; in assay [6] (30 mg/kg oral, P<0.0001 or less) it was “very significant results”; in assay [6] (from 10 mg/kg oral) it was “significant results”. In addition, the Skin thickness was 809.254 μm and 771.562 μm and 778.660 μm and 688.725 μm and 759.037 μm and 677.319 μm and 744.986 μm and 904.141 μm and 641.841 μm in assay [6] (3 mg/kg oral); 526.170 μm and 521.027 μm and 425.415 μm and 456.862 μm and 672.616 μm and 593.826 μm and 601.558 μm and 809.106 μm and 708.308 μm in assay [6] (10 mg/kg oral); 475.515 μm and 412.271 μm and 525.311 μm and 593.963 μm and 526.388 μm and 443.336 μm and 601.558 μm and 558.530 μm and 479.961 μm in assay [6] (30 mg/kg oral). Moreover, in assay [6] (10 mg/kg oral), the “skin thickness improvement effect compared with 60 mg/kg of nintedanib” value is “superior”. In assay [6] (active ingredient administered as a whole), the “collagen density in the skin (MT stain)” value was “decreased”. For the same compound, the “hydroxyproline value, ratio compared to a normal group” value in assay [7] (3 mg/kg oral) is 1.51 (2×) and 1.96 and 1.66 and 1.94 and 1.85 and 1.74 and 1.57 and 2.01; in assay [7] (10 mg/kg oral), 2.27 and 2.26 (2×) and 1.70 and 1.93 and 1.57 and 2.16 and 1.82 and 2.10; in assay [7] (30 mg/kg oral) it was 1.70 and 1.48 and 1.81 and 2.04 and 2.09 (2×) and 1.75 and 1.77 and 1.28. The “amount of hydroxyproline in the skin, significance” value in assay [7] (30 mg/kg oral, P<0.001 or less) was “very significant result”; in assay [7] (from 10 mg/kg oral), “significant results”.

With `COC(=O)c1ccc2c(c1)NC(=O)/C2=C(\Nc1ccc(N(C)C(=O)CN2CCN(C)CC2)cc1)c1ccccc1` [NIN, Nintedanib, reference compound], the “Body weight (%) change” value in assay [3] (nintedanib 60 mg/kg oral) was −0.45% and 0.58% and 8.79% and 0.44% and −2.94% and 2.46% and 4.14% and 1.78% and 4.49%. Further, in assay [4] (nintedanib 60 mg/kg oral), the Lung weight was 0.96 and 0.99 (2×) and 1.04 and 0.95 and 1.01 and 0.98 and 1.16 and 0.89. Moreover, the Skin thickness in assay [6] (nintedanib 60 mg/kg oral) is 675.558 μm and 623.019 μm and 651.831 μm and 660.809 μm and 649.479 μm and 620.302 μm and 651.572 μm and 856.355 μm and 664.973 μm. The “hydroxyproline value, ratio compared to a normal group” value in assay [7] (nintedanib 60 mg/kg oral) was 1.34 and 1.83 and 1.63 and 1.53 and 1.08 and 1.37 and 1.43 and 1.65 and 1.45.
